How the values were obtained:
Test in all cases: relative viability (nuclei count vs DMSO), 5 days (fraction); higher = more cells survive
XMD14-99 + Bortezomib = compound: CN1CCN(CC1)C2=CC(=C(C=C2)NC3=NC(=C(S3)C(=O)C4=C(C=CC=C4Cl)Cl)N)OC [XMD14-99] + CC(C)C[C@H](NC(=O)[C@H](Cc1ccccc1)NC(=O)c1cnccn1)B(O)O [Bortezomib] (partner 0.002 µM)
In short: (§1)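 Lung cancer cell lines were seeded in 1536-well plates and dosed by pin tool the next day, with either a single drug or a fixed anchor-drug dose combined with five library-drug doses (not always all listed) spaced in √10 steps. Five days later, one step fixed the cells and stained their nuclei (final 0.05% Triton X-100, 1% formaldehyde, 1 ug/ml Hoechst), and nuclei were counted on 4× images. Relative viability is the nuclei count in treated wells divided by the count in vehicle wells, and each value is the median of duplicate plates.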

XMD14-99 + Vorinostat = compound: CN1CCN(CC1)C2=CC(=C(C=C2)NC3=NC(=C(S3)C(=O)C4=C(C=CC=C4Cl)Cl)N)OC [XMD14-99] + O=C(CCCCCCC(=O)Nc1ccccc1)NO [Vorinostat] (partner 1 µM)
In short: as §1

AZD1208 + Phenformin = compound: N[C@@H]1CCCN(c2c(/C=C3\SC(=O)NC3=O)cccc2-c2ccccc2)C1 [AZD1208] + N=C(N)NC(=N)NCCc1ccccc1 [Phenformin] (partner 250 µM)
In short: as §1

AZD1208 + AZD7762 = compound: N[C@@H]1CCCN(c2c(/C=C3\SC(=O)NC3=O)cccc2-c2ccccc2)C1 [AZD1208] + NC(=O)Nc1cc(-c2cccc(F)c2)sc1C(=O)N[C@H]1CCCNC1 [AZD7762] (partner 0.2 µM)
In short: as §1

Cell Line	relative viability (XMD14-99 + Bortezomib; first compound 0.08 µM)	relative viability (XMD14-99 + Bortezomib; first compound 0.8 µM)	relative viability (XMD14-99 + Bortezomib; first compound 2.53 µM)	relative viability (XMD14-99 + Bortezomib; first compound 8 µM)	relative viability (XMD14-99 + Vorinostat; first compound 0.08 µM)	relative viability (XMD14-99 + Vorinostat; first compound 0.8 µM)	relative viability (XMD14-99 + Vorinostat; first compound 2.53 µM)	relative viability (XMD14-99 + Vorinostat; first compound 8 µM)	relative viability (AZD1208 + Phenformin; first compound 0.08 µM)	relative viability (AZD1208 + Phenformin; first compound 0.253 µM)	relative viability (AZD1208 + Phenformin; first compound 0.8 µM)	relative viability (AZD1208 + Phenformin; first compound 2.53 µM)	relative viability (AZD1208 + Phenformin; first compound 8 µM)	relative viability (AZD1208 + AZD7762; first compound 0.08 µM)	relative viability (AZD1208 + AZD7762; first compound 0.253 µM)	relative viability (AZD1208 + AZD7762; first compound 0.8 µM)	relative viability (AZD1208 + AZD7762; first compound 2.53 µM)	relative viability (AZD1208 + AZD7762; first compound 8 µM)
HCC-44	0.882	0.823	0.933	0.806	1.12	1.1	1.13	1.04	0.219	0.202	0.172	0.147	0.176	1.01	1.05	1.03	1.07	1.08
HCC-827	1.12	0.994	0.976	0.802	0.929	0.571	0.74	0.701	0.423	0.436	0.425	0.418	0.378	0.205	0.259	0.237	0.239	0.197
NCI-H1623	–	–	–	–	–	–	–	–	0.573	0.642	0.593	0.548	0.611	–	–	–	–	–
NCI-H2405	1.06	0.99	0.9	0.874	1	1.07	1	0.514	0.385	0.384	0.35	0.362	0.35	0.676	0.636	0.699	0.705	0.629
PC-3 [JPC-3]	0.901	0.832	0.832	0.723	1.04	0.843	0.756	0.539	0.47	0.5	0.496	0.515	0.504	1.03	0.89	0.692	0.793	0.823
NCI-H1651	0.964	0.938	0.981	0.811	0.614	0.487	0.534	0.448	0.328	0.387	0.299	0.315	0.249	0.458	0.54	–	0.439	0.472
HARA	1.15	1.14	0.922	0.867	0.537	0.499	0.369	0.397	0.454	0.498	0.377	0.474	0.468	0.36	0.468	0.373	0.557	0.44
NCI-H1650	0.248	0.221	0.187	0.168	0.554	0.558	0.678	0.427	0.416	0.424	0.414	0.337	0.289	–	–	–	–	–
NCI-H1395	–	–	–	–	0.889	0.891	0.761	0.527	0.442	0.438	0.46	0.506	0.417	0.39	0.401	0.377	0.448	0.367
NCI-H1993	1.14	0.956	0.92	0.864	0.595	0.889	0.793	0.714	0.538	0.468	0.522	0.471	0.488	0.679	0.654	0.629	0.757	0.579
LU99A	1.17	1.06	1.11	0.956	0.53	0.462	0.444	0.37	0.871	0.921	0.965	0.764	0.638	0.371	0.385	0.41	0.435	0.365
NCI-H1355	1.31	1.2	1.15	0.898	0.636	0.604	0.586	0.556	0.479	0.469	0.416	0.447	0.392	0.75	0.836	0.686	0.732	0.628
HCC-78	0.443	0.482	0.461	0.47	0.404	0.408	0.369	0.382	0.766	1.03	0.692	0.753	0.644	0.737	0.758	0.643	0.739	0.793
NCI-H1563	0.885	1.07	0.85	0.686	–	–	–	–	0.64	0.644	0.709	0.617	0.665	–	–	–	–	–
LK-2	–	–	–	–	0.364	0.396	0.548	0.462	0.402	0.218	0.179	0.188	0.135	0.307	0.167	–	0.11	0.144
COR-L23	1	0.816	0.86	0.576	0.409	0.415	0.304	0.181	0.491	0.469	0.417	0.419	0.408	–	–	–	–	–
SW 900	–	–	–	–	0.509	0.667	0.489	0.432	0.624	0.852	0.397	0.503	0.384	0.62	0.518	0.453	0.576	0.485
NCI-H1648	–	–	–	–	0.397	0.287	0.437	0.395	–	–	–	–	–	0.584	0.618	0.684	0.533	1.28
A549	–	–	–	–	–	–	–	–	0.157	0.172	0.168	0.132	0.127	–	–	–	–	–
NCI-H1792	0.982	0.888	0.849	0.66	–	–	–	–	0.371	0.233	0.179	0.258	0.138	0.815	0.739	–	0.593	0.56

Cell Line	relative viability (XMD14-99 + Bortezomib; first compound 0.08 µM)	relative viability (XMD14-99 + Bortezomib; first compound 0.8 µM)	relative viability (XMD14-99 + Bortezomib; first compound 2.53 µM)	relative viability (XMD14-99 + Bortezomib; first compound 8 µM)	relative viability (XMD14-99 + Vorinostat; first compound 0.08 µM)	relative viability (XMD14-99 + Vorinostat; first compound 0.8 µM)	relative viability (XMD14-99 + Vorinostat; first compound 2.53 µM)	relative viability (XMD14-99 + Vorinostat; first compound 8 µM)	relative viability (AZD1208 + Phenformin; first compound 0.08 µM)	relative viability (AZD1208 + Phenformin; first compound 0.253 µM)	relative viability (AZD1208 + Phenformin; first compound 0.8 µM)	relative viability (AZD1208 + Phenformin; first compound 2.53 µM)	relative viability (AZD1208 + Phenformin; first compound 8 µM)	relative viability (AZD1208 + AZD7762; first compound 0.08 µM)	relative viability (AZD1208 + AZD7762; first compound 0.253 µM)	relative viability (AZD1208 + AZD7762; first compound 0.8 µM)	relative viability (AZD1208 + AZD7762; first compound 2.53 µM)	relative viability (AZD1208 + AZD7762; first compound 8 µM)
NCI-H1703	0.334	0.235	0.268	0.211	–	–	–	–	–	–	–	–	–	0.116	0.0963	0.18	0.128	0.102
SW 1573	1.09	0.868	0.932	0.936	0.833	0.765	0.756	0.631	0.295	0.272	0.27	0.244	0.228	–	–	–	–	–
COR-L 105	0.841	0.805	0.614	0.473	0.833	0.944	0.662	0.663	0.476	0.567	0.478	–	0.477	–	–	–	–	–
Calu-6	0.944	0.875	0.85	0.598	–	–	–	–	–	–	–	–	–	–	–	–	–	–
NCI-H2009	1.05	0.968	0.919	0.682	0.815	0.727	0.63	0.423	0.481	0.489	0.491	0.489	0.441	–	–	–	–	–
SK-LU-1	1.43	1.42	1.03	0.943	0.735	0.74	0.813	0.479	0.502	0.543	0.408	0.506	0.42	–	–	–	–	–
NCI-H358	–	–	–	–	0.686	0.653	0.553	0.309	0.325	0.353	0.309	0.305	0.259	0.454	0.579	0.436	0.467	0.451
NCI-H1944	–	–	–	–	0.547	0.586	0.486	0.449	0.197	0.201	0.179	0.172	0.136	0.494	0.693	0.442	0.5	0.395
NCI-H2342	–	–	–	–	0.747	0.703	0.872	0.989	0.563	0.585	0.52	0.569	0.462	0.553	0.417	0.461	0.474	0.409
EBC-1	0.57	0.503	0.384	0.285	–	–	–	–	–	–	–	–	–	–	–	–	–	–
NCI-H1299	1.09	1	0.944	0.83	–	–	–	–	–	–	–	–	–	–	–	–	–	–
NCI-H522	–	–	–	–	0.809	0.889	0.757	0.956	0.614	0.678	0.569	0.618	0.479	0.773	0.892	0.756	0.747	0.584
IA-LM	0.783	0.79	0.47	0.394	0.96	0.728	0.649	0.515	–	–	–	–	–	–	–	–	–	–
SK-MES-1	–	–	–	–	1.08	1.08	1.05	0.657	0.668	0.672	0.648	0.696	0.621	–	–	–	–	–
NCI-H2170	–	–	–	–	0.784	0.832	0.741	0.609	0.458	0.385	0.444	0.438	0.447	0.911	0.923	0.821	0.796	0.424
NCI-H520	0.622	0.604	0.425	0.279	0.686	0.635	0.658	0.454	0.47	0.577	0.476	0.369	0.279	–	–	–	–	–
NCI-H661	0.708	0.669	0.793	0.674	0.807	0.768	0.627	0.522	0.264	0.286	0.276	0.295	0.268	–	–	–	–	–
NCI-H1793	–	–	–	–	0.767	0.916	0.627	0.52	0.314	0.453	0.342	0.307	0.274	0.599	0.611	0.403	0.482	0.401
NCI-H2228	1.17	0.974	0.871	0.337	0.719	0.683	0.727	0.33	0.364	0.316	0.209	0.269	0.216	–	–	–	–	–
NCI-H2023	0.931	0.945	0.83	0.645	0.572	0.648	0.732	0.363	0.394	0.386	0.348	0.367	0.295	–	–	–	–	–

From the supplement of paper PMC10307832
